Experimental data: patent US12077605B2, “Cysteine protease inhibitors and methods of use thereof” (ANIXA BIOSCIENCES, INC., priority 2022, dated 2024)

Molecular target: SARS-CoV-2 main protease M^pro (Severe acute respiratory syndrome coronavirus 2 (2019-nCoV) (SARS-CoV-2), UniProt P0DTD1)
Assay: Mpro enzyme activity assay (biochemical FRET-based)
Settings: recombinant Mpro (Ser1-Gln306); EDANS/Dabcyl FRET substrate peptide 2 μM; 30 min pre-incubation; pH 7.3; read-out: Mpro inhibition IC50

Question: With CNC(=O)C(=O)[C@H](CN1CCNC1=O)NC(=O)[C@H](CC(C)C)NC(=O)c1cc2c(OC)cccc2[nH]1 [compound 2, 4-methoxy-N-((S)-4-methyl-1-(((S)-4-(methylamino)-3,4-dioxo-1-(2-oxoimidazolidin-1-yl)butan-2-yl)amino)-1-oxopentan-2-yl)-1H-indole-2-carboxamide] as the compound, how does the IC50 read?
Answer: 114 nM
